# Literature values in patent publication US6586417B1, “Ester and ether derivatives of 4-hydroxy 4-androstene-3,17-dione and a method for the regulation of athletic function in humans” (NutriSport Pharmacal, Inc., priority 2002, dated 2003).
# Tests used:
# rat follicles = rat follicles in vitro
# rats = settings: for weight of the genital organs (testis, ventral prostrate, seminal vesicle) / luteinizing hormone (LH) levels: rats, subcutaneous treatment; for luteinizing hormone (LH) levels: 4-acetoxy-4-androstenedione given against effects of 19-hydroxytestosterone
# [1] = system: transformation of testosterone to dihydrotestosterone in the ventral prostrate; settings: ventral prostrate of the adult male rat
# aromatase enzyme = target: T1, aromatase enzyme (Homo sapiens, UniProt P11511); settings: at 24 and 48 weeks
# T1 construct: host or cells: endogenous enzyme in treated males (in vivo)
# T1 sequence (P11511 1-503): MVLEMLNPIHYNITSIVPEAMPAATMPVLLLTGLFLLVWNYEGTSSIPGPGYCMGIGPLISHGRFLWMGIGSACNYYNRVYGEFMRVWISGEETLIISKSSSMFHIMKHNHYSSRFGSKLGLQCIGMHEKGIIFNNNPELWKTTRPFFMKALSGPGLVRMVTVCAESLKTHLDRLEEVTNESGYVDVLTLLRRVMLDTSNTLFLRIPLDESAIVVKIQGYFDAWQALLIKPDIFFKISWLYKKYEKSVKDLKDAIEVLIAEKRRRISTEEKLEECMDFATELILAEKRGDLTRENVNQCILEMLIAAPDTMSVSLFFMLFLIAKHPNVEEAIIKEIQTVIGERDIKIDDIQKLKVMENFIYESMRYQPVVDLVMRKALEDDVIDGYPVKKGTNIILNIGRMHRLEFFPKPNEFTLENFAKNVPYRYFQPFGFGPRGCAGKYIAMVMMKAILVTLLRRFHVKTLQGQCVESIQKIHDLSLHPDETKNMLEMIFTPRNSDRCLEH
smiles,measurement,setting,value
CC(=O)OC1=C2CC[C@@H]3[C@H](CC[C@]4(C)C(=O)CC[C@@H]34)[C@@]2(C)CCC1=O [4-acetoxy-4-androstenedione],"stimulation of testosterone, in combination with luteinizing hormone (LH)","rat follicles; first eight hours, plus LH",greatly stimulate testosterone
same,"stimulation of testosterone, compound alone","rat follicles; first eight hours, without LH",directly stimulate testosterone alone
same,stimulation of testosterone relative to luteinizing hormone (LH),"rat follicles; next sixteen hours, compound alone",three times as much as luteinizing hormone (LH)
same,meiotic activity,rats; rats treated with 19-hydroxytestosterone,restored meiotic activity
same,"weight of the genital organs (testis, ventral prostrate, seminal vesicle)",rats,increased the weight of the genital organs
same,luteinizing hormone (LH) levels,rats,increased luteinizing hormone (LH) levels
same,inhibition of the transformation of testosterone to dihydrotestosterone,[1],able to inhibit
"C[C@]12CCC(=O)C(O)=C1CC[C@@H]1[C@@H]2CC[C@]2(C)C(=O)CC[C@@H]12 [4-hydroxy 4-androstenedione, 4-hydroxy 4-androstene-3, 17-dione]",inhibition of the transformation of testosterone to dihydrotestosterone,[1],able to inhibit
same,escape from estrogen suppression,estrogen; 500 mg p.o. daily versus single i.m. injection of 125 mg,more rapid
same,oral absorption,estrogen; p.o.,adequate oral absorption
"C[C@]12CC[C@H]3[C@@H](CCC4=CC(=O)CC[C@@]43CO)[C@@H]1CC[C@@H]2O [19-hydroxytestosterone, reference compound]","weight of the genital organs (testis, ventral prostrate, seminal vesicle)",rats,"decrease in weight of the testis, ventral prostrate, seminal vesicle"
same,luteinizing hormone (LH) levels,rats,decrease
CC1=CC(=O)C=C2CC[C@@H]3[C@H](CC[C@]4(C)C(=O)CC[C@@H]34)[C@@]12C [atamestane],restoration of androgens over estrogens,aromatase enzyme,restoration of androgens over estrogens
